Assay results from patent US20200163857A1, “Dual Component Compositions for Teeth Whitening” (Colgate-Palmolive Company, priority 2018, published 2020).

How the values were obtained:
[1] = test system: bacterial viability of stimulated saliva samples; assay: Salivary ATP bacteria viability assay (luciferase); format: cell-based; details: one-minute treatment; for Log10 of Viability, Mean: average of two experiments
Text: In order to screen for preliminary antibacterial efficacy, a NaDCC solution was subjected to an ATP-bacteria viability test. This method determines the number of viable bacterial cells in culture based on the quantification of adenosine triphosphate (ATP) present. ATP is a product of the catabolism of glucose (glycolysis) and aerobic respiration. This essential nucleoside triphosphate powers virtually all cell functions and is used by bacteria during cell division, the synthesis of nucleic acids and proteins, the transport of macromolecules, cell signaling, and bacterial motility. Given its importance, ATP signals the presence of metabolically active cells, and therefore it may be used to quantify cell viability.
In a reaction, luciferin is converted to oxiluciferin by the luciferase enzyme in the presence of ATP and oxygen. A direct relationship exists between the light output of the reaction and the number of metabolically active cells that makes this method ideal for the rapid screening of antimicrobial agents during the development of oral care formulas to establish their potential antibacterial efficacy. A salivary ATP assay was used to evaluate the antibacterial efficacy of NaDCC-containing tablets on bacterial viability of stimulated saliva samples.
In this assay, a mouthwash solution containing 0.075% cetylpyridinium chloride (CPC), a known antibacterial agent, was used as a positive control. An NaDCC tablet containing only NaDCC and weighing 20 mg was disintegrated in two phosphate buffered saline (PBS) solutions to yield both a 500 ppm NaDCC solution and a 1000 ppm NaDCC solution. […] Lower viability translates into higher antibacterial properties. The data below in Table 4 was calculated using the Tukey Method with a 95% Confidence Interval for the mean.

[2] = pH-dependent bleaching of Lissamine green B by NaDCC
Method: Two different solutions, Solution A and Solution B, were prepared. Solution A contained 2% SAPP, 0.1% Lissamine green B dye, and 97.9% water. Solution B contained 2% tetrasodium pyrophosphate (TSPP), 0.1% Lissamine green B dye, and 97.9% water. Next, solutions with various pHs were obtained by mixing the two different solutions A and B, in different volume ratios (i.e., 1:0, 1:5, 1:1, 5:1, and 0:1). 20 mL of the resulting solutions were added to 10 mg NaDCC, and the time required to bleach away all of the Lissamine green B color was recorded.

## CCCCCCCCCCCCCCCC[n+]1ccccc1 [CPC, cetylpyridinium chloride, reference compound]
[1]; 0.075% CPC mouthwash solution (positive control)
  Log10 of Viability, Mean: 5.061 ± 0.032

## O=c1nc(O)n(Cl)c(=O)n1Cl [NaDCC, sodium dichloroisocyanurate]
[2]; 10 mg NaDCC in 20 mL Mix Solution 1, VA:VB 1:0, pH 4.6
  Time to bleach: Instantaneous
[2]; 10 mg NaDCC in 20 mL Mix Solution 2, VA:VB 1:5, pH 5.8
  Time to bleach: 0.25 min
[2]; 10 mg NaDCC in 20 mL Mix Solution 3, VA:VB 1:1, pH 7.4
  Time to bleach: 8 min
[2]; 10 mg NaDCC in 20 mL Mix Solution 4, VA:VB 5:1, pH 8.8
  Time to bleach: 35 min
[2]; 10 mg NaDCC in 20 mL Mix Solution 5, VA:VB 0:1, pH 10.5
  Time to bleach: 80 min
[1]; 500 ppm NaDCC in PBS
  Log10 of Viability, Mean: 4.139 ± 0.001
[1]; 1000 ppm NaDCC in PBS
  Log10 of Viability, Mean: 3.530 ± 0.048
[1]; NaDCC solutions at both 500 ppm and 1000 ppm in PBS
  antibacterial properties compared to the 0.075% CPC solution: statistically significant improvement
